Source: patent publication EP2251010A1, “Use of thiabendazole and derivatives thereof for the therapy of neurological conditions” (Sygnis Bioscience GmbH & Co. KG, priority 2009, dated 2010)
Like-named read-outs stand apart in the source and are kept apart here.

Columns and labels:
[1] = tested on: neural stem cells; experiment: In vitro differentiation assay on adult neuronal stem cells (beta-III-tubulin promoter dual luciferase reporter); assay type: cell-based, Wistar rats
Description: The neuroregenerative effect of the compounds according to the present invention can be assayed in vitro by measuring their stimulation of the differentiation of neuronal stem cells. Therefore, adult neuronal stem cells have to be isolated and subsequently cultivated in a suitable culture medium. After several passages in vitro the stem cells have to be co-transfected with a DNA construct coding for two discriminable reporter proteins one of them under the control of a constitutive promoter and the other under the control of a beta-III-tubulin promoter. The beta-III-tubulin promoter is induced during the process of neuronal stem cell differentiation; therefore the reporter protein under the control of this promoter serves as a marker for the stem cell differentiation in such an in vitro dual reporter assay (Schneider et al., J Clin Investigation 2005; 115:2083-2098). The person skilled in the art knows several suitable constitutive promoters such as the SV40-promoter, the TK-promoter, or the CMV-promoter. As discriminable reporter proteins for such a dual reporter assay one can use discriminable luciferases such as firefly luciferase and Renilla luciferase. The transfected cells have to be incubated with the test compound and with positive and negative controls for normalization and background correction. As a positive control compound one can use retinoic acid (Guan et al., Cell Tissue Res. 2001; 305:171-176; Jacobs et al., Proc. Natl. Acad. Sci. USA 2006; 103:3902-3907), a suitable negative control is the sham treatment of the cells. The neroregenerative activity of the test compound is determined as the ratio of the signal of the beta-III-tubulin promoter controlled reporter versus the signal of the constitutively expressed reporter and is expressed as fold from the control. This assay is suitable to assess the neuroregenerative activity of thiabendazole and derivatives thereof, but also can be used to screen for other potential neuroregenerative compounds. Preferably, such a screening can be used to test compounds which are already known to be suitable as a medicament in terms of its toxicology, bioavailability, solubility, stability etc.
In vitro differentiation assay on adult neuronal stem cells with thiabendazole Neural stem cells were isolated from the subventricular zone of 4 week-old male Wistar rats as described (Maurer et al, Proteome Sci. 2003; 1:4). Cells were cultivated in Neurobasal medium (Invitrogen) supplemented with B27 (Invitrogen), 2mM L-glutamine, 100units/ml penicillin, 100units/ml streptomycin, 20ng/ml […] (EGF), 20ng/ml fibroblast growth factor-2 (FGF-2), and 2µg/ml heparin. Once a week the neural stem cells were passaged and experiments were performed after 4 weeks in vitro. For DNA transfection, the cells were dissociated and plated on poly-L-ornithin/laminin-coated 96-well plates at a density of 50.000 cells/well. Cotransfection with the pGL3-p-βIII-tubulin vector (100ng/well) and the pRL SV40 vector (100ng/well) was carried out according to the FuGene6 Transfection protocol (Roche). The pRL SV40 vector (Promega) served as an internal control vector.
To amplify the class III β-tubulin gene promoter (fragment -450 - +54), rat genomic DNA was used as a template for PCR (Dennis et al., Gene 2002;294:269-277). The amplified fragment was inserted into the Mlu I/Xho I site of the pGL3-Basic firefly luciferase reporter vector (Promega) to generate the pGL3-p-βIII-tubulin experimental vector.
After overnight incubation, the plate was decanted and given in 8-fold replicates fresh medium containing thiabendazole (Sigma) or vehicle. As a positive control for in vitro differentiation, stem cells were treated by adding 1 µM retinoic acid (Sigma) to the medium missing the mitogens.
After 48hrs, the cells were harvested to prepare the cellular extracts for luciferase assay following the directions of the manufacturer (Promega). […]

[2] = tested on: primary cortical neurons; experiment: In vitro anti-apoptosis assay (Caspase-Glo 3/7) on primary cortical neurons with staurosporine; assay type: cell-based, Wistar rat; details: sham 11 %
Description: (§1) Neuroprotection is attainable via the inhibition of apoptosis of affected neurons. The anti-apoptotic effect of thiabendazole and its derivatives can be assayed in vitro by measuring the caspase-3 and caspase-7 activities. These members of the cysteine aspartic acid-specific protease (caspase) family play key effector roles in apoptosis in mammalian cells. Cortical neurons have to be isolated and subsequently cultivated in a suitable culture medium. […] Parallel approaches with staurosporine alone and sham treatment of the cells serve as […]. The assay allows evaluating whether the test compound can compensate either completely or partially for the apoptotic effect of staurosporine.
(§2) The neuroprotective effect of compounds can be assayed in vitro by measuring caspase-3 and caspase-7 activities. These members of the cysteine aspartic acid-specific protease (caspase) family play a key effector role in apoptosis in mammalian cells.
These cells were isolated from twelve to fourteen cortices dissected from Wistar rat embryos on E18. The tissue was dissociated using 0,25 mg/ml trypsin, 0,1 mg/ml EDTA (Sigma), 100 µg/ml DNase (Roche Diagnostics Corp.) in HBSS. The digestion was stopped using 3 parts MEM-medium containing 10 % fetal calf serum, 0,45 % D-(+)glucose, 1 mM sodium-pyruvate and 0,25 µM glutamate. The cells were singularized by 10 strokes with a burnished Pasteur-pipette. After centrifugation, the cell pellet was dissolved in 10 ml medium and plated at a density of 30000 cells per well on a 96-well plate coated with poly-L-lysine for caspase-assays. […] Incubation with staurosporine (SP; 0,5 µM) alone served as positive control and incubation with vehicle (sham) served as negative control.

[3] = tested on: SH-SY5Y cells; experiment: In vitro anti-apoptosis assay (Caspase-Glo 3/7) on SH-SY5Y cells with staurosporine; assay type: cell-based, human; details: for degree of apoptosis relative to the staurosporine control: SH-SY5Y cells, compound 1 µM plus staurosporine 0,5 µM, sham 26 %, Fig. 5
[4] = tested on: SH-SY5Y neuronal cells; experiment: In vitro viability assay (constitutive Renilla luciferase reporter); assay type: cell-based, human; details: for viability of neuronal cells (Renilla luciferase activity): final concentration of 1 µM and of 10 µM, Fig. 7
Experimental: The viability assay allows for further assessment of test compounds regarding their effect on cells such as neurons. Therefore, a stably transfected cell line (e.g. SH-SY5Y cells) with a reporter construct (e.g. a luciferase construct) has to be incubated with the test compound and in parallel with positive and negative controls (e.g. staurosporine and sham, respectively). Subsequently, the signal generated by the reporter construct serves as a readout for the viability of the cells in the presence of the test compound. The assay enables the evaluation of potential neurotoxic effects of the test compound itself.
The effect of a compound on the viability of neuronal cells can be assayed in vitro by measuring the survival of neuronal cells transfected with a reporter construct under a constitutive promoter. SH-SY5Y neuronal cells stably transfected with a Renilla luciferase construct under the SV40 promoter were seeded in 96-well plates at a density of 2,5 x 10^4 cells per well. Following overnight incubation the cells were stimulated with medium containing thiabendazole or vehicle. Staurosporine (0,5 µM) served as positive control. The Renilla luciferase activity was measured 5 h later using a luminometer (Berthold Technologies, Mithras LB 940). Thiabendazole was tested in a range from 0,8 µM to 50 µM final concentration.
Analogously, thiabendazole (A; Sigma) and various derivatives thereof (2-(1,3-thiazol-5-yl)-benzimidazole (B; ChemBridge Corporation), 4-(benzimidazol-2-yl)-1,3-thiazol-2-amine (C; ChemBridge Corporation), 2-(2-thienyl)-benzimidazole (D; ChemBridge Corporation), or 2-(1,3-thiazol-4-yl)-benzimidazole-5-ol (E; Witega GmbH), Fig. 8) have been analysed for their effect on the viability of neuronal cells. The compounds were tested in a final concentration of 1 µM and of 10 µM.

[5] = tested on: SH-SY5Y cells; experiment: In vitro anti-apoptosis assay (Caspase-Glo 3/7) on SH-SY5Y cells with staurosporine; assay type: cell-based, human; details: for staurosporine induced apoptosis (caspase-3 and caspase-7 activity): sham 10 %
Description: as §1, §2
The human neuroblastoma cell-line SH-SY5Y (American Type Culture Collection) maintained in DMEM with high glucose supplemented with 20% FBS was used for the apoptosis assay. Alternatively one can analyse the apoptosis of primary cortical neurons which can be isolated from E18 rats and subsequently cultivated in suitable culture medium. 2,5 x 10^4 SH-SY5Y cells were seeded in 96-well plates and stimulated 24 h later with thiabendazole or vehicle in the presence of the apoptosis inducing compound staurosporine (0,1 µM, Calbiochem). After 5h incubation at 37 °C, caspase-Glo 3/7 reagent (Promega) containing luciferase and luminogenic substrate was added to the cells. The cleavage of the substrate by caspase-3 and caspase-7 was detected 30 min later using a luminometer (Berthold Technologies, Mithras LB 940). The Luminescence which is proportional to the amount of caspase activity serves as a measure for the apoptosis of the treated neurons. Thiabendazole was tested in a range from 0,8 µM to 100 µM final concentration.
Incubation with staurosporine (SP; 0,5 µM) alone served as positive control and incubation with vehicle (sham) served as negative control.

[6] = pH 7.0; cited from earlier work
[7] = rabbit; cited from earlier work
[8] = rat; cited from earlier work
[9] = target: cytochrom P450 1A2 (CyP1A2) (Homo sapiens, UniProt P05177); details: cited from earlier work
[10] = mouse; cited from earlier work
[11] = man, oral, in 48 hours; cited from earlier work
[12] = final concentrations of 1 µM and 10 µM, Fig. 4
[13] = compound 1 µM plus staurosporine 0,5 µM, Fig. 6

Sequence of cytochrom P450 1A2 (CyP1A2) (P05177 whole entry, species assumed): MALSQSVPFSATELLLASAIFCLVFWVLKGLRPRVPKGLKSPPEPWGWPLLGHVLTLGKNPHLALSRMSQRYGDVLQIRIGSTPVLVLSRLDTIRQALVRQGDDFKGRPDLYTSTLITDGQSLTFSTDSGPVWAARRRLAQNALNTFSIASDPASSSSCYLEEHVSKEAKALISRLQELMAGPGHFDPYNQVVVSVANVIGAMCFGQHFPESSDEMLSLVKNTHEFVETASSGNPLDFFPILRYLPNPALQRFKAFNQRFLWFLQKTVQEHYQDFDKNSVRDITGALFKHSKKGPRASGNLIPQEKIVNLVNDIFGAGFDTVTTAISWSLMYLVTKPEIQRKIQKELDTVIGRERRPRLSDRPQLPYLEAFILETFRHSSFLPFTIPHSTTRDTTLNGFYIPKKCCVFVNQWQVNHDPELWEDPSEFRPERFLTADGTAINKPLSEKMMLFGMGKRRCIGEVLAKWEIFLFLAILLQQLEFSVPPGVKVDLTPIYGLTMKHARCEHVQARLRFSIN

## c1ccc2[nH]c(-c3cncs3)nc2c1 [B, 2-(1,3-thiazol-5-yl)-benzimidazole]
[1]; [12]
  differentiation of neural stem cells to neurons (relative induction of the class III β-tubulin gene promoter controlled luciferase signal): significantly stimulate the differentiation of neural stem cells to neurons
[2]; [13]
  degree of apoptosis relative to the staurosporine control: 55%
[3]
  degree of apoptosis relative to the staurosporine control: 65%

## Nc1nc(-c2nc3ccccc3[nH]2)cs1 [C, 4-(benzimidazol-2-yl)-1,3-thiazol-2-amine]
[1]; [12]
  differentiation of neural stem cells to neurons (relative induction of the class III β-tubulin gene promoter controlled luciferase signal): significantly stimulate the differentiation of neural stem cells to neurons
[4]
  viability of neuronal cells (Renilla luciferase activity): did not show any significantly reduced viability
[2]; [13]
  degree of apoptosis relative to the staurosporine control: 52%
[3]
  degree of apoptosis relative to the staurosporine control: 46%

## c1csc(-c2nc3ccccc3[nH]2)c1 [D, 2-(2-thienyl)-benzimidazole]
[1]; [12]
  differentiation of neural stem cells to neurons (relative induction of the class III β-tubulin gene promoter controlled luciferase signal): significantly stimulate the differentiation of neural stem cells to neurons
[2]; [13]
  degree of apoptosis relative to the staurosporine control: 49%
[3]
  degree of apoptosis relative to the staurosporine control: 65%

## Oc1ccc2nc(-c3cscn3)[nH]c2c1 [E, 2-(1,3-thiazol-4-yl)-benzimidazole-5-ol]
[1]; [12]
  differentiation of neural stem cells to neurons (relative induction of the class III β-tubulin gene promoter controlled luciferase signal): significantly stimulate the differentiation of neural stem cells to neurons
[2]; [13]
  degree of apoptosis relative to the staurosporine control: 60%
[3]
  degree of apoptosis relative to the staurosporine control: 83%

## CN[C@@H]1C[C@H]2O[C@@](C)([C@@H]1OC)n1c3ccccc3c3c4c(c5c6ccccc6n2c5c31)C(=O)NC4 [staurosporine]
[5]; 0,1 µM staurosporine alone (reference, set to 100 %)
  staurosporine induced apoptosis (caspase-3 and caspase-7 activity): 100%
[5]; SH-SY5Y cells, staurosporine 0,5 µM alone (positive control), sham 26 %
  degree of apoptosis relative to the staurosporine control: 100%
[2]; staurosporine 0,5 µM alone (positive control)
  degree of apoptosis relative to the staurosporine control: 100%

## c1ccc2[nH]c(-c3cscn3)nc2c1 [thiabendazole, 2-(4-thiazolyl)-benzimidazole]
[6]
  solubility in water: approximately 50 mg/l
[7]
  oral LD 50: 3,8 g/kg
[1]; 0,2 to 100 µM final concentration, 48hrs, Fig. 1
  differentiation of neural stem cells to neurons (relative induction of the class III β-tubulin gene promoter controlled luciferase signal): significantly stimulates the differentiation of neural stem cells to neurons
[1]; [12]
  differentiation of neural stem cells to neurons (relative induction of the class III β-tubulin gene promoter controlled luciferase signal): significantly stimulate the differentiation of neural stem cells to neurons
[8]
  oral LD 50: 3,1 g/kg
[5]; 0,8 µM thiabendazole plus 0,1 µM staurosporine, 5h, staurosporine alone = 100 %
  staurosporine induced apoptosis (caspase-3 and caspase-7 activity): 60%
[5]; 25 µM thiabendazole plus 0,1 µM staurosporine, 5h, staurosporine alone = 100 %
  staurosporine induced apoptosis (caspase-3 and caspase-7 activity): 10%
[5]; 50 µM thiabendazole plus 0,1 µM staurosporine, 5h, staurosporine alone = 100 %
  staurosporine induced apoptosis (caspase-3 and caspase-7 activity): 4%
[5]; 100 µM thiabendazole plus 0,1 µM staurosporine, 5h, staurosporine alone = 100 %
  staurosporine induced apoptosis (caspase-3 and caspase-7 activity): 3%
[5]; 1,6 µM thiabendazole plus 0,1 µM staurosporine, 5h, staurosporine alone = 100 %
  staurosporine induced apoptosis (caspase-3 and caspase-7 activity): 59%
[5]; 3,1 µM thiabendazole plus 0,1 µM staurosporine, 5h, staurosporine alone = 100 %
  staurosporine induced apoptosis (caspase-3 and caspase-7 activity): 44%
[5]; 6,3 µM thiabendazole plus 0,1 µM staurosporine, 5h, staurosporine alone = 100 %
  staurosporine induced apoptosis (caspase-3 and caspase-7 activity): 28%
[5]; 12,5 µM thiabendazole plus 0,1 µM staurosporine, 5h, staurosporine alone = 100 %
  staurosporine induced apoptosis (caspase-3 and caspase-7 activity): 19%
[4]; 0,8 µM to 50 µM final concentration, 5 h, Fig. 3
  viability of the neuronal cells (Renilla luciferase activity): did not show any significant effect on the viability
[4]
  viability of neuronal cells (Renilla luciferase activity): did not show any significantly reduced viability
[9]
  inhibitor of cytochrom P450 1A2 (CyP1A2): potent inhibitor
[10]
  oral LD 50: 3,6 g/kg
[11]
  administered dose recovered from the feces: about 5%
  administered dose recovered from the urine: about 90%
[2]; [13]
  degree of apoptosis relative to the staurosporine control: 58%
[3]
  degree of apoptosis relative to the staurosporine control: 68%
[3]; compound without staurosporine
  apoptotic effect by themselves: Neither thiabendazole nor derivatives thereof exhibited an apoptotic effect by themselves
